Measured values: patent US20220257774A1, “AROMATIC AMINE AR AHD BET TARGETING PROTEIN DEGRADATION CHIMERA COMPOUND AND USE” (HINOVA PHARMACEUTICALS INC., priority 2019, published 2022)
Where two headings read alike, the source gives them in different places.

Test system: LNCaP/AR cells
Assay: Inhibition of the proliferation of LNCap/AR cells (CCK-8)
Assay type: cell-based
Conditions: read-out: LNCap/AR IC50
Excerpt: 1. Biological Assay of the Inhibition on the Proliferation of LNCap/AR Cells
(1) Experimental materials and instruments: LNCaP/AR cell line and 22RV1 cell line (provided by Sichuan Kangcheng Biotechnology Co., Ltd.) Fetal bovine serum FBS (Gibco, Cat. No. 10099-141) 0.01M PBS (Biosharp, Cat. No. 162262) RIPM1640 medium (Hyclone, Cat. No. 308090.01) Penicillin-Streptomycin (Hyclone, Cat. No. SV30010) Cell counting kit-8 (Signalway Antibody, Cat. No. CP002) DMSO (Sigma, Cat. No. D5879) Centrifuge Tube, 15 ml (Excell Bio, Cat. No. CS015-0001) Cell Culture Dish, (Excell Bio, Cat. No. CS016-0128) 96-well cell culture plate (Corning, Cat. No. 3599) Microplate reader (Thermo Multiskan MK3 type)
(2) Experimental Methods:
a. Preparation of Buffer Cell culture medium: RIPM1640 medium, 10% FBS, 1% Pen Strep: PBS buffer: PBS powder was dissolved in 2 L of ultrapure water and sterilized. b. Experimental Procedures 1) LNCaP/AR cells were subcultured in cell culture media, and then the cells in good growth condition were seeded in a 96-well plate at 80 μL/well (1000 cells/well), and cultured overnight in a 37° C., 5% CO2 cell incubator. 2) The drug was prepared into a 10 mM stock solution with dimethyl sulfoxide (DMSO). Prior to use, the stock solution was diluted in a ratio of […] with DMSO, and then diluted at a 3-fold gradient to obtain 9 serial concentrations. Then, each concentration of compound was further diluted in a ratio of 1:200 with the culture medium (to ensure that the DMSO concentration in the culture system was 0.1%), and two wells were set for each concentration. 20 μL of the diluted compound solution was added to the well of the cell culture (with a final concentration of 10 μM, 3.3 μM, 1.1 μM . . . ), and then the plate was gently tapped to thoroughly mix. In addition, the experiment included 3 negative control wells only containing cells and 3 blank control wells only containing culture medium (6 wells were each added with DMSO diluted in a ratio of 1:200 with 20 μL of culture medium). c. Result Detection: 1) After culturing for 6 days, 10 μL of CCK-8 was added to each well, and the plate was further incubated for 1 h in a 37° C., 5% CO2 cell incubator. 2) The absorbance (OD value) was measured at 450 nm with a multifunctional microplate reader. 3) The data was analyzed by the Dose-response-inhibition equation in the software GraphPad Prism5, and the IC50 value was obtained. 2. Biological assay of the inhibition on the proliferation of other drug-resistant prostate cancer cells

[1] = 144 h, LNCaP/AR cells, 6 days culture, CCK-8
[2] = LNCaP/AR cells, 6 days culture, CCK-8

| IC50 [1] [nM] | SMILES | further results |
| --- | --- | --- |
| – | CCN(c1ccc(C#N)c(Cl)c1)c1cc(-c2c(C)nn(CCCCCOCC(=O)N[C@H](C(=O)N3C[C@H](O)C[C@H]3C(=O)N[C@@H](C)c3ccc(-c4scnc4C)cc3)C(C)(C)C)c2C)ccc1C [Compound 1] | IC50 (LNCaP/AR, 144 h): > 2000 nM |
| > 2000 | Cc1ccc(-c2c(C)noc2C)cc1N(CCOCCOCC(=O)N[C@H](C(=O)N1C[C@H](O)C[C@H]1C(=O)N[C@@H](C)c1ccc(-c2scnc2C)cc1)C(C)(C)C)c1ccc(-n2ccnc2)c(Br)c1 [Compound 55] | – |
| < 100 | CC(=O)O[C@@H]1C[C@@H](C(=O)N[C@@H](C)c2ccc(-c3scnc3C)cc2)N(C(=O)[C@@H](NC(=O)COCCCCCN(c2ccc(-n3ccnn3)c(Br)c2)c2cc(-c3c(C)noc3C)ccc2C)C(C)(C)C)C1 [Compound 20, (3R,5S)-1-((S)-2-(2-((5-((3-bromo-4-(1H-1,2,3-triazol-1-yl)phenyl)(5-(3,5-dimethylisoxazol-4-yl)-2-methylphenyl)amino)pentyl)oxy)acetamido)-3,3-dimethylbutyryl)-5-((S)-1-(4-methylthiazol-5-yl)phenyl)ethyl)carbamoyl)pyrrolidine-3-yl acetate] | – |
| – | CC(=O)O[C@@H]1C[C@@H](C(=O)N[C@@H](C)c2ccc(-c3scnc3C)cc2)N(C(=O)[C@@H](NC(=O)COCCCCCN(c2ccc(-n3ccnc3)c(Br)c2)c2cc(-c3c(C)noc3C)ccc2C)C(C)(C)C)C1 [Compound 9, (3R,5S)-1-((S)-2-(2-((5-((3-bromo-4-(1H-imidazol-1-yl)phenyl)(5-(3,5-dimethylisoxazol-4-yl)-2-methylphenyl)amino)n-pentyl)oxy)acetylamino)-3,3-dimethylbutyryl)-5-(((S)-1-(4-(4-methylthiazol-5-yl)phenyl)ethyl)formylamino)pyrrolidinyl-3-acetate] | IC50 [2]: 501 to 2000 nM |
| – | Cc1ccc(-c2c(C)noc2C)cc1N(CCCCCOCC(=O)N[C@H](C(=O)N1C[C@H](O)C[C@H]1C(=O)N[C@@H](C)c1ccc(-c2scnc2C)cc1)C(C)(C)C)c1ccc(-n2ccnc2)c(C(F)(F)F)c1 [Compound 21, (2S,4R)-1-((S)-2-(2-((5-((4-(1H-imidazol-1-yl)-3-(trifluoromethyl)phenyl)(5-(3,5-dimethylisoxazol-4-yl)-2-methylphenyl)amino)pentyl)oxy)acetamido)-3,3-dimethylbutyryl)-4-hydroxy-N—((S)-1-(4-(4-methylthiazol-5-yl)phenyl)ethyl)pyrrolidine-2-carboxamide] | IC50 (LNCaP/AR, 144 h): 501 to 2000 nM |
| 101 to 500 | Cc1ccc(-c2c(C)noc2C)cc1N(CCCCCNc1ccc2c(c1)CN(C1CCC(=O)NC1=O)C2=O)c1ccc(-c2c(C)noc2C)cc1 (centres unmarked) [Compound 33, 3-(5-((5-((5-(3,5-Dimethylisoxazol-4-yl)-2-methylphenyl) (4-(3,5-dimethylisoxazol-4-yl)phenyl)amino)pentyl)amino)-1-oxoisoindolin-2-yl)piperidine-2,6-dione] | – |
| 101 to 500 | Cc1ccc(-c2c(C)noc2C)cc1N(CCCCCOCC(=O)N[C@H](C(=O)N1C[C@H](O)C[C@H]1C(=O)N[C@@H](C)c1ccc(-c2scnc2C)cc1)C(C)(C)C)c1ccc(-n2ccnc2)c(Cl)c1 [Compound 12, (2S,4R)-1-((S)-2-(2-((5-((3-chloro-4-(1H-imidazol-1-yl)phenyl)(5-(3,5-dimethylisoxazol-4-yl)-2-methylphenyl)amino)n-pentyl)oxy)acetylamino)-3,3-dimethylbutyryl)-4-hydroxy-N—((S)-1-(4-(4-methylthiazol-5-yl)phenyl)ethyl) pyrrolidinyl-2-formamide] | – |
| – | CC(=O)O[C@@H]1C[C@@H](C(=O)N[C@@H](C)c2ccc(-c3scnc3C)cc2)N(C(=O)[C@@H](NC(=O)COCCCCCN(c2ccc(F)c(-n3ccnc3)c2)c2cc(-c3c(C)noc3C)ccc2C)C(C)(C)C)C1 [Compound 15] | IC50 (LNCaP/AR, 144 h): > 2000 nM |
| > 2000 | Cc1ccc(-c2c(C)noc2C)cc1N(CCCCCOCC(=O)N[C@H](C(=O)N1C[C@H](O)C[C@H]1C(=O)N[C@@H](C)c1ccc(-c2scnc2C)cc1)C(C)(C)C)c1ccc(F)c(-n2ccnc2)c1 [Compound 16] | – |
| – | CC(=O)O[C@@H]1C[C@@H](C(=O)N[C@@H](C)c2ccc(-c3scnc3C)cc2)N(C(=O)[C@@H](NC(=O)COCC#CCN(c2ccc(-n3ccnc3)cc2)c2cc(-c3c(C)noc3C)ccc2C)C(C)(C)C)C1 [Compound 46, (3R,5S)-1-((S)-2-(2-((4-((4-(1H-imidazol-1-yl)phenyl)(5-(3,5-dimethylisoxazol-4-yl)-2-methylphenyl)amino)but-2-yn-1-yl)oxy)acetamido)-3,3-dimethylbutanol)-5-((S)-1-(4-methylthiazol-5-yl)phenyl)ethyl)carbamoyl)pyrrolidine-3-yl acetate] | IC50 (LNCaP/AR, 144 h): > 2000 nM |
| 101 to 500 | CC(=O)O[C@@H]1C[C@@H](C(=O)N[C@@H](C)c2ccc(-c3scnc3C)cc2)N(C(=O)[C@@H](NC(=O)COCCCCCN(c2ccc(-n3cnnc3)cc2)c2cc(-c3c(C)noc3C)ccc2C)C(C)(C)C)C1 [Compound 94] | – |
| – | COc1ccc(N(CCCCCOCC(=O)N[C@H](C(=O)N2C[C@H](OC(C)=O)C[C@H]2C(=O)N[C@@H](C)c2ccc(-c3scnc3C)cc2)C(C)(C)C)c2cc(-c3c(C)noc3C)ccc2C)cc1 [Compound 56, (3R,5S)-1-((S)-2-(2-((5-((5-(3,5-dimethylisoxazol-4-yl)-2-methylphenyl)(4-methoxyphenyl)amino)pentyl)oxy)acetamido)-3,3-dimethylbutyryl)-5-((S)-1-(4-(4-methylthiazol-5-yl)phenyl)ethyl)carbamoyl)pyrrolidine-3-yl acetate] | IC50 [2]: 101 to 500 nM |
| 501 to 2000 | Cc1ccc(-c2c(C)noc2C)cc1N(CCCCCCOCC(=O)N[C@H](C(=O)N1C[C@H](O)C[C@H]1C(=O)N[C@@H](C)c1ccc(-c2scnc2C)cc1)C(C)(C)C)c1ccc(-n2ccnc2)cc1 [Compound 6, (2S,4R)-1-((S)-2-(2-((6-((4-(1H-imidazol-1-yl)phenyl)(5-(3,5-Dimethylisoxazol-4-yl)-2-methylphenyl)amino)n-hexyl)oxy)acetylamino)-3,3-dimethylbutyryl)-4-hydroxy-N—((S)-1-(4-(4-methylthiazol-5-yl)phenyl)ethyl)pyrrolidinyl-2-formamide] | – |
| – | CC(=O)O[C@@H]1C[C@@H](C(=O)N[C@@H](C)c2ccc(-c3scnc3C)cc2)N(C(=O)[C@@H](NC(=O)COCCCCCN(c2ccc(-n3cnc(C)c3)c(Br)c2)c2cc(-c3c(C)noc3C)ccc2C)C(C)(C)C)C1 [Compound 52, (3R,5S)-1-((S)-2-(2-((5-((3-bromo-4-(4-methy-1H-imidazol-1-yl)phenyl)(5-(3,5-dimethylisoxazol-4-yl)-2-methylphenyl)amino)pentyl)oxy)acetamido)-3,3-dimethylbutyryl)-5-((S)-1-(4-methylthiazol-5-yl)phenyl)ethyl)carbamoyl)pyrrolidine-3-yl acetate] | IC50 [2]: 101 to 500 nM |
| > 2000 | Cc1ccc(-c2c(C)noc2C)cc1N(CCCCCNc1ccc2c(c1)C(=O)N(C1CCC(=O)N(C)C1=O)C2=O)c1ccc(C2(C#N)CC2)cc1 (centres unmarked) [Compound 151, 1-(4-((5-(3,5-Dimethylisoxazol-4-yl)-2-methylphenyl)(5-((2-(1-methyl-2,6-dioxopiperidin-3)-1,3-dicarbonylisoindolin-5-yl))amino)pentyl)amino)phenylcyclopropanecarbonitrile] | – |
| 101 to 500 | CC(=O)O[C@@H]1C[C@@H](C(=O)N[C@@H](C)c2ccc(-c3scnc3C)cc2)N(C(=O)[C@@H](NC(=O)COCCCCCN(c2ccc(-n3ccnn3)cc2)c2cc(-c3c(C)noc3C)ccc2C)C(C)(C)C)C1 [Compound 90, (3R,5S)-1-((S)-2-(2-((5-((4-(1H-1,2,3-triazol-1-yl)phenyl)(5-(3,5-dimethylisoxazol-4-yl)-2-methylphenyl)amino)pentyl)oxy)acetylamino)-3,3-dimethylbutyryl)-5-(((S)-1-(4-(4-methylthiazol-5-yl)phenyl)ethyl)aminoformyl)pyrrolidinyl-3-yl acetate] | – |
| – | CC(=O)O[C@@H]1C[C@@H](C(=O)N[C@@H](C)c2ccc(-c3scnc3C)cc2)N(C(=O)[C@@H](NC(=O)COCCCCCN(c2ccc(C#N)c(C(F)(F)F)c2)c2cc(-c3c(C)noc3C)ccc2C)C(C)(C)C)C1 [Compound 4] | IC50 (LNCaP/AR, 144 h): > 2000 nM |
